Assay results published in patent US8232289B2, “Spiropiperidine compounds as ORL-1 receptor antagonists” (Eli Lilly and Company, priority 2009, dated 2012).
Read-outs that look alike come from different tables or passages of the source. Marks after values point to notes of the source that are not given here. Blank lines part the entries; values can stand above or below the molecule they belong to.

Experiments:
Mu Opioid = Mu Opioid (Homo sapiens, UniProt P35372); assay: Radioligand binding selectivity, Mu Opioid
Sequence of Mu Opioid (P35372 whole entry): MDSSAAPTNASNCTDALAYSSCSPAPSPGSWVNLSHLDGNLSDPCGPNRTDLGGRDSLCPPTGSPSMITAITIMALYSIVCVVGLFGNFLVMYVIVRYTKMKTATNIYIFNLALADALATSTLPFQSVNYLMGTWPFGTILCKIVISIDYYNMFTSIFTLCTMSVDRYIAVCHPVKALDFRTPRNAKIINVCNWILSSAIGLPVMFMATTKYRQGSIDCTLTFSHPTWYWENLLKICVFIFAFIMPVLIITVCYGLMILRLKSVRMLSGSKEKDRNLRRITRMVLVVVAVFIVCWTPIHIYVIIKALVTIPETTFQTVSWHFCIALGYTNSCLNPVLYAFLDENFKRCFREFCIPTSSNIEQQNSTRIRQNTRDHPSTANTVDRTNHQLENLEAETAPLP
Source text: (§1) Similarly, Ki for the mu, kappa and delta opioids, serotonin, dopamine, adrenergic, mucarinic, and histamine receptors, as well as binding to the norepinephrine transporter, sodium channel, chloride channel, and calcium channel may be determined using membranes expressing the desired receptor/transporter/channels and appropriate corresponding radioligand competitor molecules.

Kappa Opioid = Kappa Opioid (Homo sapiens, UniProt P41145); assay: Radioligand binding selectivity, Kappa Opioid
Sequence of Kappa Opioid (P41145 whole entry): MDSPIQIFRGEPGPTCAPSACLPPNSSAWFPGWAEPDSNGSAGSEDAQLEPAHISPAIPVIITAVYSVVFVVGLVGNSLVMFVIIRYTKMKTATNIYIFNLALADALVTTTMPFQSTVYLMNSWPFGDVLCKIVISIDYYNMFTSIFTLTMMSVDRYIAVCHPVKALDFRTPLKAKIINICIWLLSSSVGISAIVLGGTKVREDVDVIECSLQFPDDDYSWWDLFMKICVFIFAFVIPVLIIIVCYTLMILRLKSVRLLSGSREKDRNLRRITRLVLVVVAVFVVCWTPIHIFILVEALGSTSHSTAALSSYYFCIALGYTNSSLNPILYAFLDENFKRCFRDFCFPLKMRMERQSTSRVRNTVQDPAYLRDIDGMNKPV
Source text: as §1

Delta Opioid = Delta Opioid (Homo sapiens, UniProt P41143); assay: Radioligand binding selectivity, Delta Opioid
Sequence of Delta Opioid (P41143 whole entry): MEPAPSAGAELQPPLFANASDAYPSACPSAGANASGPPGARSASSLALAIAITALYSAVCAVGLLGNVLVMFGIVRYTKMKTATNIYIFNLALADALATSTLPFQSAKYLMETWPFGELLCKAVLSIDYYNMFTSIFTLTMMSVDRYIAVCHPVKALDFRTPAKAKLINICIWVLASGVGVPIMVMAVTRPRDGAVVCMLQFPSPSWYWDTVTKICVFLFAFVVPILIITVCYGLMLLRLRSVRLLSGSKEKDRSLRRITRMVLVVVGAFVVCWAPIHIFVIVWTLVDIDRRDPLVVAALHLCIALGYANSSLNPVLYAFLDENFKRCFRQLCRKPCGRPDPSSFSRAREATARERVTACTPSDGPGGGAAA
Source text: as §1

[1] = molecular target: T1, cloned human ORL1/nociceptin receptors (Homo sapiens, UniProt P41146); assay: Functional blockade of agonist-mediated G-protein activation, GTP-γ-[35S] binding; assay type: biochemical
T1 construct: expressed in transfected cells
T1 sequence (P41146 whole entry): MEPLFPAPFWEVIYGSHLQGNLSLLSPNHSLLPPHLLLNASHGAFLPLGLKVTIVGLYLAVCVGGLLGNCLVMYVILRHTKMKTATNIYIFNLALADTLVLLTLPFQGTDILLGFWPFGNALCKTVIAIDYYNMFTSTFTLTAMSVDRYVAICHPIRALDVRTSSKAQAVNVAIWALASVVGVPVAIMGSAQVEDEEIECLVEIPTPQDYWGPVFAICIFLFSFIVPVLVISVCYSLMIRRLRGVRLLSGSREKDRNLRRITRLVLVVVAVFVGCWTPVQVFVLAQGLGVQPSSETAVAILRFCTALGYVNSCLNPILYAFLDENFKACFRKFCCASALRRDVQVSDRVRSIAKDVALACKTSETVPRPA
Source text: Agonist-mediated stimulation of G-protein coupled receptors results in the activation of membrane associated Gαβγ-protein heterotrimer complexes, and represents the first step in the transduction of extracellular signals to modification of intracellular pathways. The first step in activation of receptor-mediated activation of Gαβγ-proteins heterotrimer is the exchange of Gα subunit bound guanosine diphoshpate (GDP) for guanosine triphosphate (GTP). The binding of GTP to the Gα subunit causes dissociation of the heterotrimer subunits, Gβ and Gγ, resulting in the modulation of several intracellular signaling cascades. Measurement of receptor-mediated G-protein activation can be measured using the non-hydrolyzable radiolabeled analog of GTP, GTP-γ-[35S]. Utilizing this methodology, antagonist affinity (Kb) is measured in membranes expressing cloned human ORL1/nociceptin receptors using a GTP-γ-[35S] binding assay according to previously described protocols with minor modifications (DeLapp et al., J Pharmacol Exp Ther. 1999 May; 289(2):946-55; Ozaki et al., Eur J Pharmacol. 2000 Aug. 18; 402(1-2):45-53). Assays are conducted in a 200-μl volume with the following buffer composition: 100 mM NaCl, 20 mM HEPES, 5 mM MgCl2, 1 mM EDTA, 0.1% BSA, 3 μM GDP, 0.5 nM [^35S]GTPγS. ORL1 receptor membrane suspension is added at a concentration of 20 μg protein per well and receptor stimulation is achieved using 300 nM nociceptin/OFQ. Wheat germ agglutinin coated SPA beads (Amersham, Arlington Hts., IL) are added at 1 mg per well to detect membrane-bound [^35S]GTPγS. Plates are sealed and incubated for 2 hr. at room temperature. Plates are then placed at 4° C. overnight to allow the SPA beads to settle and then counted in a Wallac Microbeta. Specific [^35S]GTPγS binding is determined as the difference in CPM observed in the absence and presence of 10 μM unlabeled GTPγS. Data are plotted as the percent of specific [^35S]GTPγS bound. Curves are plotted as the percent of specific binding and IC50 values are determined using a sigmoidal dose response curve with variable slope. […]

[2] = molecular target: T2, human ERG (hERG) K+ channel (Homo sapiens, UniProt Q12809); assay: hERG channel [3H]astemizole binding assay
T2 construct: host or cells: HEK293 cells
T2 sequence (Q12809 whole entry): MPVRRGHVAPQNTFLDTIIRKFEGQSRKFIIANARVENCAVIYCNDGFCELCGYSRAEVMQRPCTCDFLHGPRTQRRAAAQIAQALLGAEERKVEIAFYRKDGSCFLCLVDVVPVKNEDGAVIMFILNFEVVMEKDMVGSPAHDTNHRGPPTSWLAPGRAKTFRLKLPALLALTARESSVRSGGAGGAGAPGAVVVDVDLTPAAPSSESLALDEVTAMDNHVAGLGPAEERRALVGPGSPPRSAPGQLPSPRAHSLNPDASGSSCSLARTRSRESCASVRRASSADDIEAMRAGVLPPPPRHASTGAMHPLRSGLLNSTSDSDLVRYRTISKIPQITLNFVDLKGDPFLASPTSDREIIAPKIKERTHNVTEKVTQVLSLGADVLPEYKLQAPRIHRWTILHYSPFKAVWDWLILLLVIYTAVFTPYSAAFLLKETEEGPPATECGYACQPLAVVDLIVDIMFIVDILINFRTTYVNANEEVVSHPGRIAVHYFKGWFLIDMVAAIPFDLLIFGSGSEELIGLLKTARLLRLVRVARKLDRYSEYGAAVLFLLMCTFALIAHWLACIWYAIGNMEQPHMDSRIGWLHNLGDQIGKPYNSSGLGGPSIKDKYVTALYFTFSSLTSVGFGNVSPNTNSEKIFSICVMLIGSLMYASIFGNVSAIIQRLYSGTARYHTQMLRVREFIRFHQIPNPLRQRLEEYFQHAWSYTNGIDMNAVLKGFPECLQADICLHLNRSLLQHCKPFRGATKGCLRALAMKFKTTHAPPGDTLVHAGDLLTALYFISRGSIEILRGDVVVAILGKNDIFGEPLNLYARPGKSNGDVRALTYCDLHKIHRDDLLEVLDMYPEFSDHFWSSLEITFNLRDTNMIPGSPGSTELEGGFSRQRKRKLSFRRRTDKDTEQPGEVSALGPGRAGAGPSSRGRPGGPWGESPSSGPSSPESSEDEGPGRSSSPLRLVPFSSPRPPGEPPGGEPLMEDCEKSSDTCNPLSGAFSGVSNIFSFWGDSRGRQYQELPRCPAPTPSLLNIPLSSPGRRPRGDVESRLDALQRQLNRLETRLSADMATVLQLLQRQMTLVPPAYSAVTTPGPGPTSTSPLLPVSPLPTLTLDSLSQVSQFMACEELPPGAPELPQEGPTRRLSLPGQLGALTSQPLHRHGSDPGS
Method: Blockade of K^+-channel conductance in the heart is associated with cardiotoxicity in the form of QT-wave prolongation. The affinity (K) of the exemplified nociceptin receptor antagonists for the human ERG (hERG) K^+ channel is determined in HEK293 cells expressing cloned hERG using the hERG channel antagonist radioligand [3H]astemizole (2 nM final assay concentration) according to well known procedures (see for example Finlayson K, et al. (Eur J Pharmacol. 412(3):203-12, 2001) [3H]Astemizole binding assays are performed at the contract research company Cerep (Paris France) according to standard procedures.

male NIH-Swiss mice = assay: Forced-swim test in mice (mFST); assay type: in vivo; conditions: for ED60 in mFST: immobilization time; for maximum effect, reduction in immobilization time: mouse, in vivo
Source text: mFST is an established in vivo assay for antidepressant activity (Li et al. J Pharmacol Exp Ther. 319(1):254-9, 2006.). […] The mFST was used to evaluate potential antidepressant-like activity of novel nociceptin/ORL1 antagonists according to previously published methods (Li et al. J Pharmacol Exp Ther. 319(1):254-9, 2006.). Briefly, male NIH-Swiss mice (Harlan Sprague-Dawley, Indianapolis, Ind.) weighing between 25-30 g are used. Group housed animals are removed from the vivarium to the testing area in their own cages and allowed to adapt to the new environment for at least 1 hour before testing. Alternatively, male 129S6 wild type and nociceptin/ORL1 receptor knockout mice were used to confirm dependence of the response to compound was nociceptin/ORL1 receptor dependent. All compounds are prepared in 20% Captisol, 25 mM phosphate buffer, pH 2.0 on the day of use. Mice are placed in a cylinder (diameter: 10 cm; height: 25 cm) filled with 6 cm of water (22-25° C.) for 6 min. The duration of immobility during the last 4 min. of the 6 min. period of the test was scored. A mouse is recorded as immobile when floating motionless or making only those movements necessary to keep its head above water.

5-HT1A = 5-HT1A (Homo sapiens, UniProt P08908); assay: Radioligand binding selectivity, 5-HT1A
Source text: as §1

5-HT1B = 5-HT1B (Homo sapiens, UniProt P28222); assay: Radioligand binding selectivity, 5-HT1B
Source text: as §1

5-HT1E = 5-HT1E (Homo sapiens, UniProt P28566); assay: Radioligand binding selectivity, 5-HT1E
Source text: as §1

5-HT1F = 5-HT1F (Homo sapiens, UniProt P30939); assay: Radioligand binding selectivity, 5-HT1F
Sequence of 5-HT1F (P30939 whole entry, species assumed): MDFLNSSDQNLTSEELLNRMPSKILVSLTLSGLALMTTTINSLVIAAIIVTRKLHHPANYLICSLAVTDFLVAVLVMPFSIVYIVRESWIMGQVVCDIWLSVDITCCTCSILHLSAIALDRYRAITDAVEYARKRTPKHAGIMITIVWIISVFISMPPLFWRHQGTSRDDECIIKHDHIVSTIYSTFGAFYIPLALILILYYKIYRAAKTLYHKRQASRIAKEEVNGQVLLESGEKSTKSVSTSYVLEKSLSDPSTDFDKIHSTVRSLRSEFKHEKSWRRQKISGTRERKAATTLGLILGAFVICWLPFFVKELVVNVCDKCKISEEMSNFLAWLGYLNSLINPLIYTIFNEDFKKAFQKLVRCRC
Source text: as §1

5-HT2A = 5-HT2A (Homo sapiens, UniProt P28223); assay: Radioligand binding selectivity, 5-HT2A
Sequence of 5-HT2A (P28223 whole entry, species assumed): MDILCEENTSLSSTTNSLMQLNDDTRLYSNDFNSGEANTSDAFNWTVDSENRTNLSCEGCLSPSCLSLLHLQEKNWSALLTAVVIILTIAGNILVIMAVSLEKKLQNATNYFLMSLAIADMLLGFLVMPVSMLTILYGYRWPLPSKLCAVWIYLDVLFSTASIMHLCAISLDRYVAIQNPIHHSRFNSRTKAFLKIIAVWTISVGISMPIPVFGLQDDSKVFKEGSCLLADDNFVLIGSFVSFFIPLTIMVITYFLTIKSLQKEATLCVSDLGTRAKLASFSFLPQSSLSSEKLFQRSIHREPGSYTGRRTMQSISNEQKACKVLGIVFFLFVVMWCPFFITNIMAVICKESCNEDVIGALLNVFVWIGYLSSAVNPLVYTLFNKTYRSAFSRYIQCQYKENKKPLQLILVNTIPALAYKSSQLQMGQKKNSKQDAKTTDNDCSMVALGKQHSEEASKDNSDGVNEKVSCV
Source text: as §1

5-HT7 = 5-HT7 (Homo sapiens, UniProt P34969); assay: Radioligand binding selectivity, 5-HT7
Source text: as §1

D2 Dopamine = D2 Dopamine (Homo sapiens, UniProt P14416); assay: Radioligand binding selectivity, D2 Dopamine
Sequence of D2 Dopamine (P14416 whole entry): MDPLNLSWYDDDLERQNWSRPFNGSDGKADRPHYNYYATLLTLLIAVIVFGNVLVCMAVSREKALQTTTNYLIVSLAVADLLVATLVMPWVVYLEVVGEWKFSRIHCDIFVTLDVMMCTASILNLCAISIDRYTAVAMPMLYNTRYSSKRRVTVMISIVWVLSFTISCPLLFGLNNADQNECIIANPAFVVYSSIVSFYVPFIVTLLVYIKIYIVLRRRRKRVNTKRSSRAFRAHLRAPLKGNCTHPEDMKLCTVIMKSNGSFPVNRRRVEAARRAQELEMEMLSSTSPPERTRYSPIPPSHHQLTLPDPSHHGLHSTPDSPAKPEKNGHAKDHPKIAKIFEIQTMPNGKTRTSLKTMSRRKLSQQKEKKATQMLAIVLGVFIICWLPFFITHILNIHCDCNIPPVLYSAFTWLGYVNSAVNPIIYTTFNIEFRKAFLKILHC
Source text: as §1

Adrenergic Beta2 = Adrenergic Beta2 (Homo sapiens, UniProt P07550); assay: Radioligand binding selectivity, Adrenergic Beta2
Sequence of Adrenergic Beta2 (P07550 whole entry): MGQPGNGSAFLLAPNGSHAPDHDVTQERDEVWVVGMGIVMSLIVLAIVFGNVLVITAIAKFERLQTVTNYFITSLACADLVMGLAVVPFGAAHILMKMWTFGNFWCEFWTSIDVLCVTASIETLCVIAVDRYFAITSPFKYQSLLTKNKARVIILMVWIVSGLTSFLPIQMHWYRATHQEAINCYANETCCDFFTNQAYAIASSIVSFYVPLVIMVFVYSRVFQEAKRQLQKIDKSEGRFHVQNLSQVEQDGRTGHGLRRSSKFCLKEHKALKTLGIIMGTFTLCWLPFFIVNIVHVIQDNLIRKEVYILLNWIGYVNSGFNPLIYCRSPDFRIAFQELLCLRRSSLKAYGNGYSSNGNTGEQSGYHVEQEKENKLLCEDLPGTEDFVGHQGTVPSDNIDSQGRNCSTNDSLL
Source text: as §1

Histamine H1 = Histamine H1 (Homo sapiens, UniProt P35367); assay: Radioligand binding selectivity, Histamine H1
Source text: as §1

Muscarinic M2 = Muscarinic M2 (Homo sapiens, UniProt P08172); assay: Radioligand binding selectivity, Muscarinic M2
Sequence of Muscarinic M2 (P08172 whole entry): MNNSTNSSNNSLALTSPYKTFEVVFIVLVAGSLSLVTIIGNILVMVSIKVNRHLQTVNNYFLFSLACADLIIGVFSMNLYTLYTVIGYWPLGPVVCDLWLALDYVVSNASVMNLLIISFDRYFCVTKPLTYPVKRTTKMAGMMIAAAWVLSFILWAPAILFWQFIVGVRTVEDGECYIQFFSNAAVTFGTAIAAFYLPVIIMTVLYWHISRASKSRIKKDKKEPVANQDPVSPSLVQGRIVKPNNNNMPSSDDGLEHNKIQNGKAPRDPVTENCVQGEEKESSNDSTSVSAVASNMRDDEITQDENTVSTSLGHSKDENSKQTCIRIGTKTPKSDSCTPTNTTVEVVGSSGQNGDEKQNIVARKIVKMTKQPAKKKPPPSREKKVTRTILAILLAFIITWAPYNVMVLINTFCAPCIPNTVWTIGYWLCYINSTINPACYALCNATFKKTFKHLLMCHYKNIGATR
Source text: as §1

Muscarinic M3 = Muscarinic M3 (Homo sapiens, UniProt P20309); assay: Radioligand binding selectivity, Muscarinic M3
Source text: as §1

[3] = molecular target: Norepinephrine transporter (Homo sapiens, UniProt P23975); assay: Radioligand binding selectivity, Norepinephrine transporter
Source text: as §1

Structure (SMILES): Cc1nn(-c2ncccc2Cn2cccn2)cc1CN1CCC2(CC1)OCC(F)(F)c1cc(Cl)sc12.O=C(O)C(O)C(O)C(=O)O [Example 23, 2-Chloro-4,4-difluoro-1′-[[3-methyl-1-[3-(pyrazol-1-ylmethyl)-2-pyridyl]pyrazol-4-yl]methyl]spiro[5H-thieno[2,3-c]pyran-7,4′-piperidine] (L)-Tartrate]
- Ki (Mu Opioid): > 0.451 µM
- Ki (Kappa Opioid): > 0.43 µM
- Ki (Delta Opioid): > 0.479 µM
- Kb [1]: 0.00152 µM
- Ki [2]: 1.21 µM
- ED60 in mFST (male NIH-Swiss mice): 9.5 mg/kg
- maximum effect, reduction in immobilization time (male NIH-Swiss mice): 58%

Structure (SMILES): O=C(O)C(O)C(O)C(=O)O.OCc1nn(-c2ncccc2F)cc1CN1CCC2(CC1)OCC(F)(F)c1cc(Cl)sc12 [Example 53, [4-[(2-Chloro-4,4-difluoro-spiro[5H-thieno[2,3-c]pyran-7,4′-piperidine]-1′-yl)methyl]-1-(3-fluoro-2-pyridyl)pyrazol-3-yl]methanol (L)-Tartrate]
- Ki (Mu Opioid): > 0.451 µM
- Ki (Kappa Opioid): > 0.43 µM
- Ki (Delta Opioid): > 0.479 µM
- Ki (5-HT1A): > 3.18 µM
- Ki (5-HT1B): > 3.58 µM
- Ki (5-HT1E): > 5.37 µM
- Ki (5-HT1F): > 8.52 µM
- Ki (5-HT2A): > 5 µM
- Ki (5-HT7): > 3.98 µM
- Ki (D2 Dopamine): > 5 µM
- Ki (Adrenergic Beta2): > 5 µM
- Ki (Histamine H1): > 5 µM
- Ki (Muscarinic M2): > 5 µM
- Ki (Muscarinic M3): > 5 µM
- Ki [3]: > 0.5 µM
- Kb [1]: 0.00062 µM
- Ki [2]: 8.6 µM
- ED60 in mFST (male NIH-Swiss mice): 12.9 mg/kg
- maximum effect, reduction in immobilization time (male NIH-Swiss mice): 54%

- Ki (Mu Opioid; read-out: Ki Mu Opioid): > 0.451 µM
- Ki (Kappa Opioid; read-out: Ki Kappa Opioid): > 0.43 µM
- Ki (Delta Opioid; read-out: Ki Delta Opioid): > 0.479 µM
- Ki (5-HT1A; read-out: Ki 5-HT1A): > 3.18 µM
- Ki (5-HT1B; read-out: Ki 5-HT1B): > 3.58 µM
- Ki (5-HT1E; read-out: Ki 5-HT1E): > 5.37 µM
- Ki (5-HT1F; read-out: Ki 5-HT1F): > 8.52 µM
- Ki (5-HT2A; read-out: Ki 5-HT2A): > 5 µM
- Ki (5-HT7; read-out: Ki 5-HT7): > 3.98 µM
- Ki (D2 Dopamine; read-out: Ki D2 Dopamine): > 5 µM
- Ki (Adrenergic Beta2): > 5 µM
- Ki (Histamine H1): > 5 µM
- Ki (Muscarinic M2; read-out: Ki Muscarinic M2): > 0.5 µM
- Ki (Muscarinic M3; read-out: Ki Muscarinic M3): > 5 µM
- Ki ([3]; read-out: Ki Norepinephrine transporter): > 0.5 µM
Structure (SMILES): Cc1nn(-c2ncccc2CO)cc1CN1CCC2(CC1)OCC(F)(F)c1cc(Cl)sc12 [Example 62, [2-[4-[(2-Chloro-4,4-difluoro-spiro[5H-thieno[2,3-c]pyran-7,4′-piperidine]-1′-yl)methyl]-3-methyl-pyrazol-1-yl]-3-pyridyl]methanol]
- Ki ([2]; HEK293 cells expressing cloned hERG, [3H]astemizole 2 nM, read-out: Ki hERG K+ channel): 6.08 µM
- Immobilization Time (male NIH-Swiss mice; 3 mg/Kg Ex. 62 + 10 mg/Kg fluoxetine): 97* sec
- Immobilization Time (male NIH-Swiss mice; 3 mg/Kg, alone): 163 s
- Immobilization Time (male NIH-Swiss mice; 10 mg/Kg Ex. 62 + 10 mg/Kg fluoxetine): 85* sec
- Immobilization Time (male NIH-Swiss mice; 10 mg/Kg, alone): 129 s
- ED60 in mFST (male NIH-Swiss mice): 24.9 mg/kg
- effect on immobilization time in combination with fluoxetine (male NIH-Swiss mice; in combination with 10 mg/kg fluoxetine): significantly further reduce immobilization time over either fluoxetine or the compound of Example 62 alone
- maximum effect, reduction in immobilization time (male NIH-Swiss mice): 45%
